The source of these data is ChEMBL document CHEMBL1201862, “PubChem BioAssay data set” (2004).

Among the test systems are 786-0; CAKI-1; CCRF-CEM; KM12; LOX IMVI; M14; NCI-H23; OVCAR-3; SF-268; SF-539; SK-MEL-2; U-251; UACC-257; UO-31; HOP-92; MOLT-4; DU-145; HL-60.
Holding throughout (test): NCI anticancer screen, dose series, 48 h

Each structure is given as a SMILES string.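 How tested: cells in 96-well plates exposed to compound for 48 hours at five concentrations. The concentration for 50% growth inhibition is given as GI50.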 Calls of active or inactive are those of the source. Rule as the data show it: active = GI50 up to about 1.1 µM and inactive = higher. Where a SMILES comes first, the peptide text is derived from it. [ ]: non-standard residue; d: D form. Phe(4-NO2) = N[CH](Cc1ccc([N+](=O)[O-])cc1)C(=O)O

Regarding `N#Cc1c(-c2ccccc2)c(/C=N/c2ccc(Cl)cc2)c(=O)n2c1[nH]c1ccccc12`, the GI50 is > 100 µM (inactive) in the test with 786-0; 20.1 µM (inactive) with CAKI-1; 21.4 µM (inactive) in the test on CCRF-CEM; 54.1 µM (inactive) in the test with KM12; > 100 µM (inactive) in the test on LOX IMVI; > 100 µM (inactive) in the test on M14. The GI50 in the test with NCI-H23 was > 100 µM (inactive); with OVCAR-3, 80.9 µM (inactive); with SF-268, > 100 µM (inactive); with SF-539 it was > 100 µM (inactive); in the test with SK-MEL-2, > 100 µM (inactive); in the test on U-251, > 100 µM (inactive). Further, the figures for the GI50 in the test on UACC-257 and in the test with UO-31 were > 100 µM (inactive) and 34.4 µM (inactive), respectively.
With `CC(/C=N/N=C1NCCCN1)=N\N=C1NCCCN1`, the GI50 with 786-0 was > 100 µM (inactive); in the test with CAKI-1 it was > 100 µM (inactive); in the test on CCRF-CEM, > 100 µM (inactive); with HOP-92, 40.2 µM (inactive); in the test on KM12 it was > 100 µM (inactive); with LOX IMVI, > 100 µM (inactive). The GI50 in the test on M14, in the test on MOLT-4, in the test on NCI-H23, with OVCAR-3, in the test on SF-268 and in the test with SF-539 was > 100 µM (inactive) each time. Besides, the GI50 with U-251, in the test with UACC-257 and in the test on UO-31 was > 100 µM (inactive) each time.
For the compound `O=C(CCCN1CCC(Nc2ccc(F)cc2)(c2nnnn2C2CCCCC2)CC1)c1ccc(F)cc1`, the GI50 in the test on 786-0 was 17.8 µM (inactive); in the test with CCRF-CEM, 7.1 µM (inactive); in the test with DU-145, 14.5 µM (inactive); with HL-60, 6.52 µM (inactive); in the test on KM12, 3.52 µM (inactive); in the test with LOX IMVI it was 19.4 µM (inactive). In addition, the GI50 is 16.7 µM (inactive) in the test on M14; 5.27 µM (inactive) in the test with MOLT-4; 14.5 µM (inactive) in the test on NCI-H23; 14.8 µM (inactive) with OVCAR-3; 12.8 µM (inactive) in the test with SF-268; 12.6 µM (inactive) in the test on SF-539. Also, the GI50 in the test on SK-MEL-2 was 16.3 µM (inactive); in the test on U-251, 15.3 µM (inactive); in the test with UACC-257, 21.3 µM (inactive); in the test on UO-31, 14.1 µM (inactive).
Consider `c1ccc2nn(C3CCCO3)nc2c1` (configuration not stated), for which the GI50 in the test on 786-0, with CAKI-1, with CCRF-CEM, with DU-145, with HL-60 and in the test on M14 was > 100 µM (inactive) in each case. In addition, the GI50 in the test with MOLT-4, in the test on NCI-H23, in the test with OVCAR-3, in the test with SF-268, with SF-539 and in the test with SK-MEL-2 was > 100 µM (inactive) each time. For the same compound, the GI50 in the test with U-251 and in the test with UACC-257 was > 100 µM (inactive) each time.
Turning to `COc1ccc(/C=C2\C(=O)N(C(=O)c3ccc(NC(C)=O)cc3)N=C2C)cc1OC`, the GI50 in the test on 786-0, in the test with CAKI-1, with CCRF-CEM, in the test on HL-60, with KM12 and with LOX IMVI was > 100 µM (inactive) in each case. Besides, the GI50 in the test with M14, with MOLT-4, with NCI-H23, with OVCAR-3, in the test with SF-268 and with SF-539 was > 100 µM (inactive) in each case. Also, the GI50 with SK-MEL-2, in the test on UACC-257 and in the test on UO-31 was > 100 µM (inactive) throughout.
For the compound `O=C(/C=C/c1cccs1)c1ccc(Cl)s1`, the GI50 in the test on 786-0 was > 10 µM (inactive); in the test on CAKI-1, 83.4 µM (inactive); with CCRF-CEM, 25.1 µM (inactive); in the test with DU-145 it was 56 µM (inactive); in the test with HL-60 it was 22.1 µM (inactive); in the test with KM12 it was 21.8 µM (inactive). Besides, the GI50 in the test on M14 is 38.8 µM (inactive); in the test with MOLT-4 it was 23.8 µM (inactive); with NCI-H23, 23.1 µM (inactive); with SF-268 it was 38.7 µM (inactive); in the test with SF-539 it was 28.6 µM (inactive); in the test with SK-MEL-2 it was > 100 µM (inactive). Also, the GI50 with U-251 is 40.8 µM (inactive); in the test on UACC-257 it was 39.8 µM (inactive); with UO-31 it was 19.9 µM (inactive).
Turning to `CCN1CC2=C(NC(=S)NC2c2ccc(Cl)cc2)/C(=C/c2ccc(Cl)cc2)C1` (configuration not stated), the GI50 is 45.6 µM (inactive) in the test with 786-0; 35.7 µM (inactive) in the test with CAKI-1; 14.5 µM (inactive) with CCRF-CEM; > 100 µM (inactive) with DU-145; 23.7 µM (inactive) in the test on HL-60; > 100 µM (inactive) in the test with KM12. The GI50 in the test with LOX IMVI was > 100 µM (inactive); in the test on M14, > 100 µM (inactive); in the test on MOLT-4 it was 10.5 µM (inactive); with NCI-H23, > 100 µM (inactive); in the test on OVCAR-3 it was 61.5 µM (inactive); in the test with SF-268, 77.4 µM (inactive). Further, the GI50 with SK-MEL-2 is > 100 µM (inactive); in the test with U-251, 45.3 µM (inactive); in the test with UACC-257, > 100 µM (inactive); in the test on UO-31, > 100 µM (inactive).
Take `CSC1=C(C(=O)Nc2ccc(Cl)cc2)C(N)=NC1=O`: the GI50 with 786-0 was > 100 µM (inactive); with CAKI-1, 29 µM (inactive); in the test with CCRF-CEM it was > 100 µM (inactive); with DU-145, > 100 µM (inactive); in the test on HL-60, > 100 µM (inactive); with KM12 it was > 100 µM (inactive). The GI50 in the test with LOX IMVI, in the test with M14, with MOLT-4, in the test with NCI-H23, with OVCAR-3 and in the test on SF-268 was > 100 µM (inactive) in each case. Moreover, the GI50 in the test with SF-539 was > 100 µM (inactive); in the test on SK-MEL-2, > 100 µM (inactive); in the test with U-251 it was > 100 µM (inactive); with UACC-257 it was > 100 µM (inactive); in the test with UO-31, 45.1 µM (inactive).
Turning to `O=C(c1ccncc1)C1C(=O)c2ccccc2C1C1(O)c2ccccc2CC1C(O)c1ccncc1` (configuration not stated), the GI50 in the test with 786-0 was 39.9 µM (inactive); with CAKI-1, 34.7 µM (inactive); with HOP-92, 47.9 µM (inactive); with KM12 it was 35.3 µM (inactive); in the test with LOX IMVI it was 33.4 µM (inactive); with M14 it was 25.8 µM (inactive). Besides, the GI50 with MOLT-4 is 15.1 µM (inactive); in the test with NCI-H23 it was 48.6 µM (inactive); with SF-268, 46.7 µM (inactive); with SF-539, 77.6 µM (inactive); with SK-MEL-2, 23.6 µM (inactive); in the test on U-251 it was 41 µM (inactive). Besides, the GI50 was 52.7 µM (inactive) with UACC-257 and 13.9 µM (inactive) in the test on UO-31.
On to `O=C(COc1ccc(OCC(=O)N/N=C/c2ccc(-c3ccc(Cl)cc3Cl)o2)c(Cl)c1)N/N=C/c1ccc(-c2ccc(Cl)cc2Cl)o1`, for which the GI50 with 786-0 was 94.4 µM (inactive); in the test on CAKI-1, > 100 µM (inactive); with CCRF-CEM, 14.8 µM (inactive); in the test on DU-145, > 100 µM (inactive); with HL-60, 16.4 µM (inactive); in the test on KM12, > 100 µM (inactive). In addition, the GI50 in the test with LOX IMVI is 57.9 µM (inactive); in the test with M14, > 100 µM (inactive); in the test on MOLT-4, 0.0298 µM (active); in the test on NCI-H23 it was > 100 µM (inactive); in the test with OVCAR-3, 49.5 µM (inactive); in the test on SF-268 it was 41.6 µM (inactive). Further, the GI50 in the test with SK-MEL-2 is 17.1 µM (inactive); in the test with U-251 it was 46.7 µM (inactive); in the test with UACC-257, > 100 µM (inactive); in the test on UO-31 it was > 100 µM (inactive).
In the case of `CCOC(=O)Cc1cc(=O)[nH]c(-n2[nH]c(C)c(CCO)c2=O)n1`, the GI50 with 786-0, in the test on CAKI-1, with CCRF-CEM, with DU-145, in the test with HL-60 and with KM12 was > 100 µM (inactive) each time. Also, the GI50 in the test with LOX IMVI, in the test on M14, in the test on NCI-H23, with OVCAR-3, with SF-268 and in the test on SF-539 was > 100 µM (inactive) in each case. Also, the GI50 with SK-MEL-2, with U-251, in the test with UACC-257 and with UO-31 was > 100 µM (inactive) throughout.
With `COC(=O)CCC(NC(=O)C(CCC(=O)OC)NC(=O)C(CCC(=O)OC)NC(=O)C(CCC(=O)OC)NC(=O)C(CCC(=O)OC)NC(=O)C(Cc1ccc([N+](=O)[O-])cc1)NC(=O)C(CCC(=O)OC)NC(=O)C(CCC(=O)OC)NC(=O)C(CCC(=O)OC)NC(=O)C(CCC(=O)OC)NC(=O)C(CCC(=O)OC)NC(C)=O)C(N)=O` (configuration not stated) (Ac-E(OMe)E(OMe)E(OMe)E(OMe)E(OMe)[Phe(4-NO2)]E(OMe)E(OMe)E(OMe)E(OMe)E(OMe)-NH2; configuration not given here), the GI50 in the test on 786-0, with CAKI-1, in the test on CCRF-CEM, in the test on DU-145, in the test with KM12 and in the test with LOX IMVI was > 100 µM (inactive) in each case. Besides, the GI50 with M14 is 37.9 µM (inactive); in the test with MOLT-4, > 100 µM (inactive); with NCI-H23, > 100 µM (inactive); in the test with SF-268, > 100 µM (inactive); in the test with SK-MEL-2, > 100 µM (inactive); with U-251, > 100 µM (inactive). Besides, the GI50 with UACC-257 and with UO-31 was > 100 µM (inactive) throughout.
